Results reported in PMC8518915, “Evaluation of 4‐(4‐Fluorobenzyl)piperazin‐1‐yl]‐Based Compounds as Competitive Tyrosinase Inhibitors Endowed with Antimelanogenic Effects” (Chemmedchem, 2021).
“Also recorded” adds a separate entry of the source. Where two headings read alike, the source gives them in different places.

Experiments:
[1] = molecular target: T1, TYR from Agaricus bisporus (AbTYR) (Agaricus bisporus, UniProt C7FF04); assay: Kinetic analysis of the tyrosinase inhibition (Lineweaver‐Burk plots); format: biochemical; details: L‐DOPA 0.6–5 mM
T1 construct: purchased Sigma Chemical Co. (St. Louis, MO, USA)
Procedure: Compounds 23, 25 and 26 were selected for kinetic studies to obtain more information about the mode of action against TYR; thereby their inhibitory effects on diphenolase activity were measured using increasing concentration of L‐DOPA. (0.6–5 mM). The reaction mixture consisted of four different concentrations of L‐DOPA (0.6–5 mM), the substrate, and AbTYR in […] (0.05 M, pH 6.8).
Compounds 23 and 25 (0.2, 0.4, and 0.8 μM), 26 (0.09, 0.18, and 0.36 μM) were added to the reaction mixture. The Michaelis‐Menten constant (Km) and maximal velocity (Vmax) of tyrosinase were determined by Lineweaver‐Burk plots.
A series of experiments were performed to determine the mode of inhibition of compounds 23, 25, 26 on tyrosinase. The reaction mixture consisted of four different concentrations of the substrate L‐DOPA (0.6–5 mM), and mushroom tyrosinase in phosphate buffer (0.05 M, pH 6.8). In addition, three different concentrations of compounds 23, 25, 26 (0.2–0.4–0.8 μM) were used for the analysis. Preincubation and measurement time were the same as discussed in mushroom tyrosinase inhibition assay. The Michaelis‐Menten constant (Km) and maximal velocity (Vmax) of tyrosinase were determined by Lineweaver‐Burk plots.

[2] = MTT assay for cell viability; format: cell-based, Murine; details: mouse, B16F10 melanoma cells, B16F10 cells, 100 μM (highest concentration)
Procedure: (§1) MTT assay was used to evaluate the biosafety effectiveness of 23, 25 and 26. Cells were treated with different concentration of each compound (0–100 μM), for 48 h, to determine the potential cytotoxic effect on B16F10 cells. […] To achieve a deeper characterization of most promising and potent inhibitor 26, we further examined its inhibitory effect on the tyrosinase activity in the cellular model. DOPA staining assay was performed using lysates of B16F10 cells untreated or treated with hormone with or without the tested compound 26. […] This was evident with the appearance of a darker band compared to that of untreated control (Figure 7). […] As result, the inhibitory effects of the compound 26 was also confirmed in the cellular model.
(§2) The viability of B16F10 cells was detected by the colorimetric 3‐(4,5‐dimethylthiazol‐2‐yl)‐2,5‐diphenyltetrazolium bromide (MTT) assay. A density of 5x10^3 cells/well, in the absence or presence of compounds (ranging from 1 μM to 100 μM), were seeded in 96‐well plates. The cells were incubated for 48 h at the temperature of 37 °C. MTT solution (0.5 mg/mL) was added at the end of incubation time. The medium was removed after 3 h of incubation at 37 °C. Then, DMSO was added to the precipitates and the absorbance was determined at 560 nm using a microplate reader (Multiskan FC – Thermo Scientific). The cell viability was expressed as the percentage of the amount of living cells in treated samples relative to untreated controls (100 % viability). The mean value and standard deviation (SD) were calculated from triplicate experiments.

B16F10 cells = assay: MTT assay for cell viability; format: cell-based, Murine; details: B16F10 melanoma cells, 48 h, at the concentration inhibiting tyrosinase activity
Procedure: as §1, §2

AbTYR = details: cited from earlier work; for IC50: efficacy against AbTYR; for mode of inhibition: prototypical AbTYR inhibitor
[3] = tested on: tyrosinase activity in B16F10 cells; assay: Tyrosinase zymography (L‐DOPA staining) of cell lysates; format: cell-based, Murine
Procedure: as §1
The tyrosinase activity was performed by DOPA‐staining assay as previously reported but with slight modifications.[29] A day after seeding the B16F10 cells (6X104 cells/mL) the culture medium was changed by the same medium supplemented with either α‐MSH alone or α‐MSH plus compound (0–100 μM)) or kojic acid (100 μM). After incubation for 48 h, cells were washed and lysed using phosphate buffer (50 mM, pH 6.8) containing Triton X‐100 (1 %) and phenylmethyl‐sulfonyl fluoride (0.1 mM). Cellular lysates were centrifugated at 12000 g for 20 min at 4 °C. Bradford method was used to determine the protein content using BSA as standard. […]

[4] = molecular target: T1, TYR from Agaricus bisporus (AbTYR); details: AbTYR kinetic studies; cited from earlier work

T1 sequence (C7FF04 1-392 limits assumed): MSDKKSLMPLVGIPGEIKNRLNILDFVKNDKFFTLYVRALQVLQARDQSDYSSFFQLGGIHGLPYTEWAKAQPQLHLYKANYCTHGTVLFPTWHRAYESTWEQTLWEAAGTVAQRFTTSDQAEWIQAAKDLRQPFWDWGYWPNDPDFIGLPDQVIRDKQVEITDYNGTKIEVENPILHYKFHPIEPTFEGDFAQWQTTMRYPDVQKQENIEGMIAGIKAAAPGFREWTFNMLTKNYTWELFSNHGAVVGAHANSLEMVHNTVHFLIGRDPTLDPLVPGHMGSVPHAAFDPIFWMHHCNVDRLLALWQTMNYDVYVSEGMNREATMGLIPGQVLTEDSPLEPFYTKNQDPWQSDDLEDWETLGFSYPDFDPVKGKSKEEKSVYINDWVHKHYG

SMILES: O=C(c1cccc(F)c1C(F)(F)F)N1CCN(Cc2ccc(F)cc2)CC1 [Compound 23, 1‐[4‐(4‐Fluorobenzyl)piperazin‐1‐yl]‐[3‐fluoro‐2‐(trifluoromethyl)phenyl]methanone]
- mode of inhibition of diphenolase activity [1]: competitive inhibitors
- viability at 48 h, 100 µM [2]: > 90%
- cytotoxic effect (B16F10 cells): no cytotoxic effect; also recorded: no cytotoxicity

SMILES: COc1ccc(C(=O)N2CCN(Cc3ccc(F)cc3)CC2)c([N+](=O)[O-])c1 [Compound 31, 1‐[4‐(4‐Fluorobenzyl)piperazin‐1‐yl]‐(4‐methoxy‐2‐nitro‐phenyl)methanone]
- melting point: 133 to 134 °C

SMILES: O=C(Cc1ccc([N+](=O)[O-])cc1)N1CCN(Cc2ccc(F)cc2)CC1 [Compound 18, 1‐[4‐(4‐Fluorobenzyl)piperazin‐1‐yl]‐2‐(4‐nitrophenyl)ethan‐1‐one]
- melting point: 98 to 100 °C

SMILES: O=C(CN1CCC(Cc2ccccc2)CC1)N1CCN(c2ccc(O)cc2)CC1 [Compound 3, 2‐(4‐benzyl‐1‐piperidyl)‐1‐[4‐(4‐hydroxyphenyl)piperazin‐1‐yl]ethanone]
- IC50 (AbTYR): 3800 nM
- mode of inhibition (AbTYR): noncompetitive

SMILES: O=C(Cc1cccc(Br)c1)N1CCN(Cc2ccc(F)cc2)CC1 [Compound 14, 1‐[4‐(4‐Fluorobenzyl)piperazin‐1‐yl]‐2‐(3‐bromophenyl)ethan‐1‐one]
- melting point: 240 to 242 °C

SMILES: O=C(c1cccc(Cl)c1[N+](=O)[O-])N1CCN(Cc2ccc(F)cc2)CC1 [Compound 26, 1‐[4‐(4‐Fluorobenzyl)piperazin‐1‐yl]‐(3‐chloro‐2‐nitro‐phenyl)methanone]
- mode of inhibition of diphenolase activity [1]: competitive inhibitors
- melting point: 91 to 92 °C
- antimelanogenic effect ([3]; B16F10 cells): exerted antimelanogenic effect; also recorded: displayed antimelanogenic effects
- tyrosinase activity in cellular model (L‐DOPA staining) ([3]; lysates of α‐MSH-treated B16F10 cells, compound 0–100 μM, 48 h): decreased in a dose‐response manner
- viability at 48 h, 100 µM [2]: > 90%
- cytotoxic effect (B16F10 cells): absence of cytotoxicity; also recorded: no cytotoxic effect; also recorded: no cytotoxicity

SMILES: O=C(c1cc(Cl)ccc1[N+](=O)[O-])N1CCN(Cc2ccc(F)cc2)CC1 [Compound 28, 1‐[4‐(4‐Fluorobenzyl)piperazin‐1‐yl]‐(5‐chloro‐2‐nitro‐phenyl)methanone]
- melting point: 130 to 131 °C

SMILES: CCOc1cccc(C(C)=NNC(N)=S)c1 [Compound 1, 2‐(1‐(3‐ethoxyphenyl)ethylidene)hydrazine‐1carbothioamide]
- IC50 (AbTYR): 850 nM
- mode of inhibition (AbTYR): competitive

SMILES: COc1ccc(CC(=O)N2CCN(Cc3ccc(F)cc3)CC2)cc1 [Compound 19, 1‐[4‐(4‐Fluorobenzyl)piperazin‐1‐yl]‐2‐(4‐methoxyphenyl)ethan‐1‐one]
- melting point: 234 to 238 °C

SMILES: O=C(c1cc(F)ccc1C(F)(F)F)N1CCN(Cc2ccc(F)cc2)CC1 [Compound 25, 1‐[4‐(4‐Fluorobenzyl)piperazin‐1‐yl]‐[5‐fluoro‐2‐(trifluoromethyl)phenyl]methanone]
- mode of inhibition of diphenolase activity [1]: competitive inhibitors
- viability at 48 h, 100 µM [2]: > 90%
- cytotoxic effect (B16F10 cells): no cytotoxic effect; also recorded: no cytotoxicity

SMILES: O=C(c1ccc(Cl)cc1[N+](=O)[O-])N1CCN(Cc2ccc(F)cc2)CC1 [Compound 27, 1‐[4‐(4‐Fluorobenzyl)piperazin‐1‐yl]‐(4‐chloro‐2‐nitro‐phenyl)methanone]
- melting point: 141 to 142 °C

SMILES: O=C(Cc1ccc(Cl)cc1)N1CCN(Cc2ccc(F)cc2)CC1 [Compound 12, 1‐[4‐(4‐Fluorobenzyl)piperazin‐1‐yl]‐2‐(4‐chlorophenyl)ethan‐1‐one]
- melting point: 120 to 122 °C

SMILES: O=C(Cc1ccccc1[N+](=O)[O-])N1CCN(Cc2ccc(F)cc2)CC1 [Compound 16, 1‐[4‐(4‐Fluorobenzyl)piperazin‐1‐yl]‐2‐(2‐nitrophenyl)ethan‐1‐one]
- melting point: 88 to 90 °C

SMILES: COc1cc2[nH]cc(C(=O)CCN3CCC(Cc4ccc(F)cc4)CC3)c2cc1OC [Compound 4, 1‐(5,6‐dimethoxy‐1H‐indol‐3‐yl)‐3‐(4‐(4‐fluorobenzyl)piperidin‐1‐yl)propan‐1‐one]
- IC50 (AbTYR): 7560 nM
- mode of inhibition (AbTYR): mixed‐type

SMILES: COc1ccc([N+](=O)[O-])c(C(=O)N2CCN(Cc3ccc(F)cc3)CC2)c1 [Compound 32, 1‐[4‐(4‐Fluorobenzyl)piperazin‐1‐yl]‐(5‐methoxy‐2‐nitro‐phenyl)methanone]
- melting point: 151 to 152 °C

SMILES: O=C(Cc1ccccc1Cl)N1CCN(Cc2ccc(F)cc2)CC1 [Compound 10, 1‐[4‐(4‐Fluorobenzyl)piperazin‐1‐yl]‐2‐(2‐chlorophenyl)ethan‐1‐one]
- melting point: 100 to 102 °C

SMILES: Oc1ccc(C=Nc2nnc(S)s2)c(O)c1 [Compound 2, 4‐(((5‐mercapto‐1,3,4‐thiadiazol‐2‐yl)imino)methyl)benzene‐1,3‐diol]
- IC50 (AbTYR): 250 nM
- mode of inhibition (AbTYR): uncompetitive

SMILES: O=C(Cc1cccc([N+](=O)[O-])c1)N1CCN(Cc2ccc(F)cc2)CC1 [Compound 17, 1‐[4‐(4‐Fluorobenzyl)piperazin‐1‐yl]‐2‐(3‐nitrophenyl)ethan‐1‐one]
- melting point: 83 to 84 °C

SMILES: O=c1cc(CO)occ1O [KA, 5‐hydroxy‐2‐(hydroxymethyl)‐4H‐pyran‐4‐one]
- mode of inhibition (AbTYR; classification from literature): competitive

SMILES: O=C(c1ccc([N+](=O)[O-])cc1[N+](=O)[O-])N1CCN(Cc2ccc(F)cc2)CC1 [Compound 5 c, [4‐(4‐fluorobenzyl)piperazin‐1‐yl](2,4‐dinitrophenyl)methanone]
- mode of inhibition of diphenolase activity [4]: competitive inhibitor
